Source: patent publication US9358220B2, “Method of treating acne” (THESAN PHARMACEUTICALS, INC., priority 2008, dated 2016)
Like-named read-outs stand apart in the source and are kept apart here.

What was measured:
[1] = test system: CYPlAl; experiment: CYP1A1 activity test (P450-GLO assay) in Hep G2 cells
Method: The tests are carried out using the P450-GLO assay kit from Promega. At D0, the cells are seeded at a density of approximately 60% confluence, and then treated at Dl with the test substance diluted to various concentrations in the appropriate culture medium. At D2, the CYPlAl activity is measured as recommended by the supplier, using the nonlytic protocol on a cell monolayer.

[2] = target: T1, AhR (Homo sapiens, UniProt P35869); experiment: AhR activation test, luciferase reporter plox-XRE TATA-Luc in HEP G2 cells; type: cell-based; set-up: endogenous in cells; host or cells: Hep G2 cells transduced with the reporter lentivector plox-XRE TATA-Luc; details: for AhR percentage activation compared to 0.01 μM TCDD: HEP G2 cells, most active concentration in the range tested
T1 sequence (P35869 11-848): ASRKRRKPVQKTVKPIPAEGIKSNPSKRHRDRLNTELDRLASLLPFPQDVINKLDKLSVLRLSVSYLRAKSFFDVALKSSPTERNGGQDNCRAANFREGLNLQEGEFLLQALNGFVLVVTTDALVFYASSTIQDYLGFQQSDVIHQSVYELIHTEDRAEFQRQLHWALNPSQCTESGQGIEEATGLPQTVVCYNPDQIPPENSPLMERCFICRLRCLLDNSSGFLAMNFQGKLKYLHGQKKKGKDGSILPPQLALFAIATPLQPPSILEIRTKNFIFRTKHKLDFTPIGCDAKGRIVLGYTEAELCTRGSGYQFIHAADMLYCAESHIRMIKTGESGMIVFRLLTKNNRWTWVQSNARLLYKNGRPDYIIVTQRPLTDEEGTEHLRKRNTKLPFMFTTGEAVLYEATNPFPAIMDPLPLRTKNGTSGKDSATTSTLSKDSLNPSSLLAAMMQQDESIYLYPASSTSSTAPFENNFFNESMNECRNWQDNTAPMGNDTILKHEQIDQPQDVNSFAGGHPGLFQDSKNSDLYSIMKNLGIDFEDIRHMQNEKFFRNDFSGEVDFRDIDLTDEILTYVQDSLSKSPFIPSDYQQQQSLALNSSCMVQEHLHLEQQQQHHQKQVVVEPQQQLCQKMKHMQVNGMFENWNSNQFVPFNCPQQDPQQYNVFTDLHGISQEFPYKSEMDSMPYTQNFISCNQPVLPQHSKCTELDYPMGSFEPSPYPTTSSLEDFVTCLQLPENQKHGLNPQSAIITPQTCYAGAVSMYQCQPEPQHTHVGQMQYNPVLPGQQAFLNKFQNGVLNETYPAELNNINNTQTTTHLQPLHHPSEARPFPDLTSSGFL
Method: (§1) The Hep G2 cells are cultured in DMEM (Gibco)+10% fetal bovine serum+penicillin+streptomycin, the NHKs in keratinocyte SFM medium (Gibco)+penicillin+streptomycin. At DO, the Hep G2 cells are seeded into 12-well plates in a proportion of approximately 30 000 cells/cm^2. The NHKs are seeded into 6-well plates in a proportion of approximately 15 000 cells/cm^2. After 24 h, the medium is replaced with fresh medium and the cells are transduced with the lentivector plox-XRE TATA-Luc. After 48 h, the cells are subcultured and maintained in culture, and tested for their reactivity to TCDD.
The tests are carried out using the luciferase reporter assay system kit from Promega. At DO, the cells are seeded at a density of approximately 60% confluence, and then treated, at Dl, with the test substance diluted to various concentrations in the appropriate culture medium. At D2, the cells are lysed in CLB buffer, and the lysate is clarified by centrifugation for 5 min at 10 000 g. The luciferase activity is measured in 20 microliters of lysate as recommended by the supplier, using the luminoskan luminometer (Thermo).

[3] = target: T1, AhR; experiment: Test for potentiation by bacterial flora: AhR activation in HEP G2 cells with skin bacteria extracts and tryptophan; type: cell-based; set-up: endogenous in cells; host or cells: Hep G2 cells transduced with the reporter lentivector plox-XRE TATA-Luc
Method: The activation value 25.00 on the Y-axis corresponds to ⅙ of the AhR stimulation by 10 nM TCDD in this same system (157.00).

[4] = test system: human keratinocytes; experiment: Wound healing in vitro on a culture of human keratinocytes (migration index); type: cell-based
Method: The wound is induced by means of an incision with a yellow micropipette tip (10-200 μl). Migration index value obtained with the ligand/that of the control without ligand. […] This indicates an activity of the AhR activation pathway on the migration of keratinocytes which is found in vivo in humans (FIGS. 5, 6, 10).

[5] = test system: chronic wounds; experiment: Chronic human leg wounds with dermatoporosis treated with tryptophan gel; type: in vivo
[6] = test system: seborrhea; experiment: Sebumetric measurement of casual sebum levels on the face of hyperseborrheic men; type: in vivo, human; details: gel containing 1% tryptophan on the face of two hyperseborrheic men for 3 weeks
Description: The effect shown in FIG. 16, where it is seen that Propionibacterium acnes (PA) generates an AhR activation, which is highly accentuated by the addition of tryptophan, can be taken advantage of in the context of this invention. This is because PA is one of the key players in sebaceous gland diseases, and it is present in large amounts in facial skin. It could therefore contribute to producing therapeutic amounts of AhR ligands in the presence of tryptophan, or also other aromatic amino acids such as tyrosine and phenylalanine. In order to explore the relevance of this approach, the applicant carried out a test by applying a gel containing 1% tryptophan to the face of two hyperseborrheic men for 3 weeks, and observed a decrease in the seborrhea which could be evaluated at 40% of the starting value using sebumetric measurement of the casual sebum levels.

[7] = test system: human skin; experiment: Estradiol (E2) concentration in human skin exposed to TCDD by ELISA; type: in vivo; details: human skin containing 1800 ppt of TCDD versus controls
[8] = human organism; cited from earlier work
[9] = test system: human skin; experiment: Messenger RNA expression (RT PCR, transcriptome) in human skin exposed to TCDD; type: in vivo
Description: This observation identifies a new target for medicaments aimed at modulating sebaceous function, a concept exemplified here by AhR activation.
The expression of the messenger RNAs of vascular endothelial growth factors (VEGFs) and of their receptors is increased in skin exposed to TCDD.
The expression of the messenger RNAs of the various estrogen receptors ESRR and ER, of the estrogen responsive finger protein (EFP) ligase and of the estrogen-producing aromatase enzyme is increased in skin exposed to TCDD.

[10] = target: T1, AhR; experiment: AhR activation test, luciferase reporter plox-XRE TATA-Luc in normal human keratinocytes; type: cell-based; set-up: endogenous in cells; host or cells: normal human keratinocytes (NHKs) transduced with the reporter lentivector plox-XRE TATA-Luc; details: NHK-plox-XRE TATA-Luc cells, 10 nM, 24 h
Method: FIGS. 14, 15 and 16 show AhR activation in HEP G2 cells and normal human keratinocytes (NHKs) stably transfected with the lentivector plox-XRE TATA-Luc.
as §1
The tests are carried out using the luciferase reporter assay system kit from Promega. […] At D2, the cells are lysed in CLB buffer, and the lysate is clarified by centrifugation for 5 min at 10 000 g. The luciferase activity is measured in 20 microliters of lysate as recommended by the supplier, using the luminoskan luminometer (Thermo).
Similar results are noted.

[11] = test system: staphylococcus sp, P. acnes; experiment: Bacterial colonization of human skin exposed to TCDD (CFU per cm^2); type: in vivo
[12] = test system: sebaceous glands; experiment: Sebaceous glands in the ear skin of C57BL/6 mice after topical application; type: in vivo
Description: The effect on the sebaceous glands can be reproduced in animals by topical application of TCDD. A 95% reduction in the number of sebaceous glands can be observed in C57BL/6 mice after 45 days of application of 2 mcg/ml TCDD (FIG. 2).
To reproduce the useful effect of TCDD, in a therapeutic reduction approach the reduction in the surface area of the sebaceous glands in the ears of C57BL/6 mice treated once a day for 45 d with various ligands according to the invention can be studied. The surface area of the sebaceous glands is measured on three serial sections per animal. A reduction of greater than 40% is sought, and obtained here with a concentration, a treatment time and an application frequency considered to be minimal. Isotretinoin is shown by way of example of a product used for the topical and systemic treatment of acne.
The topical application of an AhR ligand such as 6-formylindolo[3,2-b]carbazole (FICZ), at a concentration of 100 mcg/ml, makes it possible to obtain a significant decrease in the sebaceous glands, of the order of 40%. Other ligands according to the invention (see FIGS. 14, 15 and 17) also lead to a decrease in the surface area of the sebaceous glands.

[13] = test system: CYPlAl; experiment: CYP1A1 activity test (P450-GLO assay) in NHK cells; type: cell-based, human; details: 10 nM, 24 h
[14] = test system: sebaceous glands; experiment: Sebaceous glands in biopsies of human skin exposed to TCDD (histology); type: in vivo; details: human skin containing 930 to 2900 ppt of TCDD; 62 biopsies, 620 sections
Method: The sebaceous glands, which are present in large numbers in normal human skin, disappear during exposure to toxic doses of TCDD. […] Thus, on the face of an adult, the number is between 400 and 900/cm^2.
For each site, 3 to 10 skin biopsies were analyzed after fixing with formol and staining with hematin-eosin. At least 10 sections per block were analyzed.

[15] = test system: dermabrasions; experiment: Healing of superficial epidermal-dermal wounds (dermabrasions) in human skin containing TCDD; type: in vivo
Description: Thus, the time to complete healing is reduced from 9.3 to 5 days.

[16] = human skin containing 1800 ppt of TCDD versus controls

SMILES: COc1ccccc1OCCNCC(O)COc1cccc2[nH]c3ccccc3c12 (stereo not shown) [carvedilol, Carvedilol]
- induction of CYPlAl activity by ligands according to the invention [1]: induction of this AhR-dependent biological activity

SMILES: O=c1cc(O)cc(/C=C/c2ccc(O)c(O)c2)o1 [hispidin, Hispidin]
- AhR percentage activation compared to 0.01 μM TCDD [2]: greatest activities

SMILES: O=c1c2ccccc2nc2n1CCc1c-2[nH]c2ccccc12 [rutaecarpine, Rutaecarpine]
- induction of CYPlAl activity by ligands according to the invention [1]: induction of this AhR-dependent biological activity

SMILES: N[C@@H](Cc1c[nH]c2ccccc12)C(=O)O [tryptophan]
- AhR activation with bacterial extract on addition of tryptophan ([3]; in particular with P. acnes extract): an increase in the activation is observed
- stimulation of healing (migration index) ([4]; μM concentrations): strong stimulation of healing
- dermatoporotic skin around the wound [5]: thickening of the dermatoporotic skin around the wound
- healing of chronic wounds ([5]; series of 10 cases of chronic wounds on legs): Contraction of chronic wounds and the development of epithelial healing
- decrease in the seborrhea (casual sebum levels), of the starting value [6]: 40%
- AhR percentage activation compared to 0.01 μM TCDD [2]: greatest activities

SMILES: Clc1cc2c(cc1Cl)Oc1cc(Cl)c(Cl)cc1O2 [TCDD, 2,3,7,8-tetrachlorodibenzo-p-dioxin]
- AhR stimulation (activation value on the Y-axis) ([3]; 10 nM): 157.00
- concentration of estradiol (E2) in skin [7]: increase in the concentration of estradiol
- half-life in human tissues [8]: 4-12 years
- expression of messenger RNAs of estrogen receptors ESRR and ER, EFP ligase and aromatase [9, 16]: increased
- expression of messenger RNAs of vascular endothelial growth factors (VEGFs) and their receptors [9, 16]: increased
- hyaluronate in the dermis ([9]; human skin exposed to TCDD): very substantial accumulation of hyaluronate in the dermis
- messenger RNAs of sebaceous lipogenesis enzymes ([9]; human skin exposed to TCDD, whole transcriptome): considerable reduction
- induction of the luciferase activity [10]: 10 fold
- P. acnes colonization of skin ([11]; human skin exposed to TCDD): same effect is observed
- colonization of skin by staphylococcus sp (CFU per cm^2) ([11]; human with more than 900 ppt of TCDD in the skin, 4 samples 1 month apart): very greatly decreased
- reduction in the number of sebaceous glands ([12]; C57BL/6 mice, topical 2 mcg/ml, 45 days): 95%
- induction of the CYPlAl activity [13]: 20 fold
- effect on healing at the highest concentrations [4]: a decrease in the effect, or even an inhibition of healing
- stimulation of healing (migration index) ([4]; nM concentrations): strong stimulation of healing
- sebaceous glands observed in skin biopsies [14]: no sebaceous gland could be observed
- time in which epidermal-dermal wounds are covered ([15]; human exposed to TCDD, average healing time ordinarily 10 days): 3 days
- time to complete healing of dermabrasions ([15]; human skin with 930 to 2900 ppt TCDD, controls 9.3 days): 5 days
- induction of the luciferase activity ([2]; Hep G2-plox-XRE TATA-Luc cells, 10 nM, 24 h): 100 fold
- induction of the CYPlAl activity ([1]; Hep G2 cells, 10 nM, 24 h): 250 fold

SMILES: O=Cc1c2c(cc3c1=Nc1ccccc1-3)=Nc1ccccc1-2 [FICZ, 6-Formylindolo[3,2-b]carbazole]
- decrease in the sebaceous glands ([12]; C57BL/6 mice ears, topical 100 mcg/ml, once a day for 45 d): ~40%
- effect on healing at the highest concentrations [4]: a decrease in the effect, or even an inhibition of healing
- stimulation of healing (migration index) ([4]; μM concentrations): strong stimulation of healing
- AhR percentage activation compared to 0.01 μM TCDD [2]: greatest activities

SMILES: CCOC(=O)c1cc2c(cn1)[nH]c1ccccc12 [B-CCE, Ethyl β-carboline-3-carboxylate]
- AhR percentage activation compared to 0.01 μM TCDD [2]: greatest activities
- induction of CYPlAl activity by ligands according to the invention ([1]; FIG. 17, cell type not stated for the ligands): induction of this AhR-dependent biological activity
